Species on record: Rattus norvegicus
Assay: Open TG-GATES - Regimen: Single
Type: toxicity, organism-based, Sprague-Dawley
Parameters: regimen Single, gender Male, age 6 weeks
Settings: in vivo, po, 0 mg/kg, route gavage, dose level Control; for APTT / Bas / Eos / Fbg / Hb / Ht / Lym / MCH / MCHC / MCV / Mono / Neu / PT / Plat / RBC / Ret / WBC: tissue Blood; for KIDNEY_L / KIDNEY_R / KIDNEY_TOTAL: tissue Kidney; for LIVER: tissue Liver; for A/G / ALP / ALT / AST / BUN / CRE / Ca / Cl / DBIL / GLC / IP / K / LDH / Na / PL / RALB / TBIL / TC / TG / TP / gamma-GTP: tissue Plasma

COc1ccc(O)c(C(C)(C)C)c1.COc1ccc(O)cc1C(C)(C)C [BUTYLATED HYDROXYANISOLE]
TERMINAL_BW (3 h): 208.5 g
APTT (3 h): 13.3 s
Bas (3 h): 0.2%
Eos (3 h): 0.7%
Fbg (3 h): 265.2 mg/dL
Hb (3 h): 13.1 g/dL
Ht (3 h): 38.4%
Lym (3 h): 74%
MCH (3 h): 21.2 pg
MCHC (3 h): 34%
MCV (3 h): 62.4 fL
Mono (3 h): 3%
Neu (3 h): 21.1%
PT (3 h): 11.5 s
Plat (3 h): 132.5 x10_4/uL
RBC (3 h): 616.8 x10_4/ul
Ret (3 h): 7.8%
WBC (3 h): 93.2 x10_2/uL
KIDNEY_L (3 h): 0.9 g
KIDNEY_R (3 h): 0.8 g
KIDNEY_TOTAL (3 h): 1.7 g
LIVER (3 h): 9 g
A/G (3 h): 0.8
ALP (3 h): 1750 IU/L
ALT (3 h): 41.4 IU/L
AST (3 h): 76.4 IU/L
BUN (3 h): 10.6 mg/dL
CRE (3 h): 0.2 mg/dL
Ca (3 h): 11.2 mg/dL
Cl (3 h): 106.4 meq/L
DBIL (3 h): 0.03 mg/dL
GLC (3 h): 171.8 mg/dL
IP (3 h): 8.9 mg/dL
K (3 h): 4.4 meq/L
LDH (3 h): 72.2 IU/L
Na (3 h): 141 meq/L
PL (3 h): 153.8 mg/dL
RALB (3 h): 2.6 g/dL
TBIL (3 h): 0.076 mg/dL
TC (3 h): 80.8 mg/dL
TG (3 h): 84.6 mg/dL
TP (3 h): 5.6 g/dL
gamma-GTP (3 h): 1.2 IU/L
TERMINAL_BW (6 h): 202.6 g
APTT (6 h): 16.8 s
Bas (6 h): 0.2%
Eos (6 h): 0.7%
Fbg (6 h): 263 mg/dL
Hb (6 h): 13.3 g/dL
Ht (6 h): 39%
Lym (6 h): 75.4%
MCH (6 h): 21.3 pg
MCHC (6 h): 34.2%
MCV (6 h): 62.2 fL
Mono (6 h): 2%
Neu (6 h): 20.9%
PT (6 h): 12.6 s
Plat (6 h): 145.4 x10_4/uL
RBC (6 h): 626.6 x10_4/ul
Ret (6 h): 7.6%
WBC (6 h): 97.7 x10_2/uL
KIDNEY_L (6 h): 0.9 g
KIDNEY_R (6 h): 0.9 g
KIDNEY_TOTAL (6 h): 1.8 g
LIVER (6 h): 8.1 g
A/G (6 h): 0.8
ALP (6 h): 1507 IU/L
ALT (6 h): 33.8 IU/L
AST (6 h): 67.8 IU/L
BUN (6 h): 7.2 mg/dL
CRE (6 h): 0.2 mg/dL
Ca (6 h): 10.9 mg/dL
Cl (6 h): 109 meq/L
DBIL (6 h): 0.026 mg/dL
GLC (6 h): 179 mg/dL
IP (6 h): 10 mg/dL
K (6 h): 4.1 meq/L
LDH (6 h): 54.8 IU/L
Na (6 h): 142.6 meq/L
PL (6 h): 127.8 mg/dL
RALB (6 h): 2.6 g/dL
TBIL (6 h): 0.074 mg/dL
TC (6 h): 73.8 mg/dL
TG (6 h): 58.2 mg/dL
TP (6 h): 5.7 g/dL
gamma-GTP (6 h): 1.2 IU/L
TERMINAL_BW (9 h): 203.6 g
APTT (9 h): 15.7 s
Bas (9 h): 0.2%
Eos (9 h): 0.8%
Fbg (9 h): 263 mg/dL
Hb (9 h): 12.9 g/dL
Ht (9 h): 37.6%
Lym (9 h): 74.4%
MCH (9 h): 21.1 pg
MCHC (9 h): 34.2%
MCV (9 h): 61.5 fL
Mono (9 h): 2.8%
Neu (9 h): 21%
PT (9 h): 12.8 s
Plat (9 h): 142.3 x10_4/uL
RBC (9 h): 612 x10_4/ul
Ret (9 h): 8.4%
WBC (9 h): 68.2 x10_2/uL
KIDNEY_L (9 h): 0.9 g
KIDNEY_R (9 h): 0.8 g
KIDNEY_TOTAL (9 h): 1.7 g
LIVER (9 h): 7.6 g
A/G (9 h): 0.9
ALP (9 h): 1620.2 IU/L
ALT (9 h): 30.8 IU/L
AST (9 h): 66.6 IU/L
BUN (9 h): 8.8 mg/dL
CRE (9 h): 0.2 mg/dL
Ca (9 h): 10.9 mg/dL
Cl (9 h): 106.2 meq/L
DBIL (9 h): 0.022 mg/dL
GLC (9 h): 177.4 mg/dL
IP (9 h): 10.2 mg/dL
K (9 h): 4.1 meq/L
LDH (9 h): 61.6 IU/L
Na (9 h): 141.8 meq/L
PL (9 h): 128.2 mg/dL
RALB (9 h): 2.6 g/dL
TBIL (9 h): 0.088 mg/dL
TC (9 h): 76.8 mg/dL
TG (9 h): 39.4 mg/dL
TP (9 h): 5.6 g/dL
gamma-GTP (9 h): 1.2 IU/L
TERMINAL_BW (24 h): 217.3 g
APTT (24 h): 15.1 s
Bas (24 h): 0.2%
Eos (24 h): 0.7%
Fbg (24 h): 275.6 mg/dL
Hb (24 h): 13 g/dL
Ht (24 h): 38%
Lym (24 h): 77%
MCH (24 h): 20.9 pg
MCHC (24 h): 34.2%
MCV (24 h): 61.2 fL
Mono (24 h): 2.3%
Neu (24 h): 19.1%
PT (24 h): 12.2 s
Plat (24 h): 136.6 x10_4/uL
RBC (24 h): 620.2 x10_4/ul
Ret (24 h): 7%
WBC (24 h): 82.5 x10_2/uL
KIDNEY_L (24 h): 0.9 g
KIDNEY_R (24 h): 0.9 g
KIDNEY_TOTAL (24 h): 1.8 g
LIVER (24 h): 9.7 g
A/G (24 h): 0.8
ALP (24 h): 1843.2 IU/L
ALT (24 h): 40 IU/L
AST (24 h): 70.8 IU/L
BUN (24 h): 14.6 mg/dL
CRE (24 h): 0.2 mg/dL
Ca (24 h): 11.2 mg/dL
Cl (24 h): 106.4 meq/L
DBIL (24 h): 0.018 mg/dL
GLC (24 h): 173 mg/dL
IP (24 h): 7.7 mg/dL
K (24 h): 4.3 meq/L
LDH (24 h): 63.2 IU/L
Na (24 h): 143.6 meq/L
PL (24 h): 136.6 mg/dL
RALB (24 h): 2.6 g/dL
TBIL (24 h): 0.066 mg/dL
TC (24 h): 77.6 mg/dL
TG (24 h): 75.8 mg/dL
TP (24 h): 5.7 g/dL
gamma-GTP (24 h): 1 IU/L
